Measured values: the NIST ThermoML archive (doi:10.1016/j.jct.2009.07.014)

Assay: excess molar enthalpy (molar enthalpy of mixing); xn = mol fraction of the nth substance listed
Settings: 101.3 kPa, Liquid, Flow calorimetry

CCCCO [butan-1-ol] + CCCCCCC
excess molar enthalpy [kcal/mol]
Settings | 298.15 K | 313.15 K
x2 = 0.0502 | 0.0176 | 0.0246
x2 = 0.0999 | 0.0352 | –
x2 = 0.1 | – | 0.049
x2 = 0.1504 | 0.0519 | –
x2 = 0.1505 | – | 0.0727
x2 = 0.2 | 0.0674 | –
x2 = 0.2001 | – | 0.0944
x2 = 0.2498 | 0.0823 | –
x2 = 0.2499 | – | 0.115
x2 = 0.2998 | 0.096 | –
x2 = 0.2999 | – | 0.134
x2 = 0.3497 | 0.108 | –
x2 = 0.3498 | – | 0.151
x2 = 0.4004 | 0.119 | 0.166
x2 = 0.4496 | 0.129 | 0.179
x2 = 0.5001 | 0.137 | –
x2 = 0.5002 | – | 0.19
x2 = 0.5498 | 0.144 | –
x2 = 0.5499 | – | 0.198
x2 = 0.5996 | 0.148 | –
x2 = 0.5997 | – | 0.202
x2 = 0.6504 | 0.149 | –
x2 = 0.6505 | – | 0.204
x2 = 0.6999 | 0.147 | 0.202
x2 = 0.7501 | 0.143 | 0.197
x2 = 0.7998 | 0.135 | 0.189
x2 = 0.8502 | 0.125 | 0.175
x2 = 0.8997 | – | 0.155
x2 = 0.8998 | 0.11 | –
x2 = 0.9497 | 0.0863 | 0.121
